The compounds below were run against T1, Rat FAAH (Rattus norvegicus, UniProt P97612) (assay: Assay Method 2: FAAH assay, 3H-anandamide hydrolysis in cell homogenate). Settings: transfected SK-N-MC cell homogenate, 80 nM 3H-AEA, 1 h rt, > = solubility limit or highest concentration tested.
T1 construct: expressed in transfected cells
T1 sequence (P97612 1-579): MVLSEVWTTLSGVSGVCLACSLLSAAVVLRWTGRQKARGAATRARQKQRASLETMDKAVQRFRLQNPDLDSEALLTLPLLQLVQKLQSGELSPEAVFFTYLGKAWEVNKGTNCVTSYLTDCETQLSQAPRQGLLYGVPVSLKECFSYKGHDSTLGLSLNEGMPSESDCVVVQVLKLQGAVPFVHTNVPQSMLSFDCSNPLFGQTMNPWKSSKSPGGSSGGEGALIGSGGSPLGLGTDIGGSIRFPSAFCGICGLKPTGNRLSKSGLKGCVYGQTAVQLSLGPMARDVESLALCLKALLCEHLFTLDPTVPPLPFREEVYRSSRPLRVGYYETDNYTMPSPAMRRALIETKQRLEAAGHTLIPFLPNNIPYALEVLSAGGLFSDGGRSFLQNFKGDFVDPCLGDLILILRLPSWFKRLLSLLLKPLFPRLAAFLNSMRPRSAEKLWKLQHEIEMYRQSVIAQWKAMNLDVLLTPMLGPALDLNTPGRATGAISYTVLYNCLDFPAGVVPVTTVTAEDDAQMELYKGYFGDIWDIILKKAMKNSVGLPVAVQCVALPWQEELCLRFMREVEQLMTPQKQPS
Type: biochemical
Method: A. Transfection of Cells with Rat FAAH
(§1) A 10-cm tissue culture dish with a confluent monolayer of SK-N-MC cells was split 2 days (d) prior to transfection. Using sterile technique, the media was removed and the cells were detached from the dish by the addition of trypsin. One fifth of the cells were then placed onto a new 10-cm dish. Cells were grown in a 37° C. incubator with 5% CO2 in Minimal Essential Media Eagle with 10% Fetal Bovine Serum. After 2 d, cells were approximately 80% confluent. These cells were removed from the dish with trypsin and pelleted in a clinical centrifuge. The pellet was re-suspended in 400 μL complete media and transferred to an electroporation cuvette with a 0.4 cm gap between the electrodes. Supercoiled rat FAAH cDNA (1 μg) was added to the cells and mixed. The voltage for the electroporation was set at 0.25 kV, and the capacitance was set at 960 μF. After electroporation, the cells were diluted into complete media (10 mL) and plated onto four 10-cm dishes. Because of the variability in the efficiency of electroporation, four different concentrations of cells were plated. The ratios used were 1:20, 1:10, and 1:5, with the remainder of the cells being added to the fourth dish. The cells were allowed to recover for 24 h before adding the selection media (complete media with 600 μg/mL G418). After 10 d, dishes were analyzed for surviving colonies of cells. Dishes with well-isolated colonies were used. Cells from individual colonies were isolated and tested.
(§2) The assay mixture consisted of 50 μL of the cell homogenate, 10 μL of the test compound, and 40 μL of anandamide [1-^3H-ethanolamine] (^3H-AEA, Perkin-Elmer, 10.3 Ci/mmol), which was added last, for a final tracer concentration of 80 nM. The reaction mixture was incubated at it for 1 h. During the incubation, 96-well Multiscreen filter plates (catalog number MAFCNOB50; Millipore, Bedford, Mass., USA) were loaded with 25 μL of activated charcoal (Multiscreen column loader, catalog number MACL09625, Millipore) and washed once with 100 μL of MeOH. Also during the incubation, 96-well DYNEX MicroLite plates (catalog number NL510410) were loaded with 100 μL of MicroScint40 (catalog number 6013641, Packard Bioscience, Meriden, Conn., USA). After the 1 h incubation, 60 μL of the reaction mixture were transferred to the charcoal plates, which were then assembled on top of the DYNEX plates using Centrifuge Alignment Frames (catalog number MACF09604, Millipore). The unbound labeled ethanolamine . was centrifuged through to the bottom plate (5 min at 2000 rpm), which was preloaded with the scintillant, as described above. The plates were sealed and left at rt for 1 h before counting on a Hewlett Packard TopCount.
(§3) Where activity is shown as greater than (>) a particular value, the value is the solubility limit of the compound in the assay medium or the highest concentration tested in the assay.

Compound | IC50 [nM]
O=C(c1ncco1)C1CCN(Cc2nc3ccccc3cc2Cl)CC1 [Example 80, [1-(3-Chloro-quinolin-2-ylmethyl)-piperidin-4-yl]-oxazol-2-yl-methanone] | 70
O=C(c1ncco1)C1CCN(Cc2ccc3c(c2)OC(F)(F)O3)CC1 [Example 71, [1-(2,2-Difluoro-benzo[1,3]dioxol-5-ylmethyl)-piperidin-4-yl]-oxazol-2-yl-methanone] | 24
O=C(c1ncco1)C1CCN(Cc2cc3ccccc3s2)CC1 [Example 54, (1-Benzo[b]thoiphen-2-ylmethyl-piperidin-4-yl)-oxazol-2-yl-methanone] | 9
O=C(c1ncco1)C1CCN(Cc2ccc3[nH]ccc3c2)CC1 [Example 42] | > 10000
CC(C)Oc1ccc(CN2CCC(C(=O)c3ncco3)CC2)cc1 [Example 23, [1-(4-Isopropoxy-benzyl)-piperidin-4-yl]-oxazol-2-yl-methanone] | > 10000
COc1ccc(S(=O)(=O)N2CCC(C(=O)c3ncco3)CC2)cc1 [Example 2, [1-(4-Methoxy-benzenesulfonyl)-piperidin-4-yl]-oxazol-2-yl-methanone] | > 10000
O=C(c1ncco1)C1CCN(Cc2cc3ccc(Cl)cc3nc2Cl)CC1 [Example 70, [1-(2,7-Dichloro-quinolin-3-ylmethyl)-piperidin-4-yl]-oxazol-2-yl-methanone] | 290
Cc1cccc2cc(CN3CCC(C(=O)c4ncco4)CC3)c(Cl)nc12 [Example 73, [1-(2-Chloro-8-methyl-quinolin-3-ylmethyl)-piperidin-4-yl]-oxazol-2-yl-methanone] | 4
COc1ccc(CN2CCC(C(=O)c3ncco3)CC2)cc1OC [Example 43, [1-(3,4-Dimethoxy-benzyl)-piperidin-4-yl]-oxazol-2-yl-methanone] | 6000
O=C(c1ncco1)C1CCN(Cc2ccncc2)CC1 [Example 58, Oxazol-2-yl-(1-pyridin-4-ylmethyl-piperidin-4-yl)-methanone] | > 10000
O=C(c1ncco1)C1CCN(C(=O)c2ccccc2Cl)CC1 [Example 13, [1-(2-Chloro-benzoyl)-piperidin-4-yl]-oxazol-2-yl-methanone] | > 10000
O=C(c1ncco1)C1CCN(Cc2cccnc2)CC1 [Example 59, Oxazol-2-yl-(1-pyridin-3-ylmethyl-piperidin-4-yl)-methanone] | > 10000
COc1cccc(C(=O)N2CCC(C(=O)c3ncco3)CC2)c1 [Example 7, [1-(3-Methoxy-benzoyl)-piperidin-4-yl]-oxazol-2-yl-methanone] | > 10000
CC(c1ccccc1)N1CCC(C(=O)c2ncco2)CC1 (stereo not drawn) [Example 90, Oxazol-2-yl-[1-(1-phenyl-ethyl)-piperidin-4-yl]-methanone] | > 10000

Each compound was assayed against T2, FAAH (Homo sapiens, UniProt O00519) (assay: Assay Method 1: FAAH assay, 3H-anandamide hydrolysis in cell homogenate). Settings: T84 or transfected SK-N-MC cell homogenate, 80 nM 3H-AEA, 1 h rt, > = solubility limit or highest concentration tested.
T2 sequence (O00519 1-579): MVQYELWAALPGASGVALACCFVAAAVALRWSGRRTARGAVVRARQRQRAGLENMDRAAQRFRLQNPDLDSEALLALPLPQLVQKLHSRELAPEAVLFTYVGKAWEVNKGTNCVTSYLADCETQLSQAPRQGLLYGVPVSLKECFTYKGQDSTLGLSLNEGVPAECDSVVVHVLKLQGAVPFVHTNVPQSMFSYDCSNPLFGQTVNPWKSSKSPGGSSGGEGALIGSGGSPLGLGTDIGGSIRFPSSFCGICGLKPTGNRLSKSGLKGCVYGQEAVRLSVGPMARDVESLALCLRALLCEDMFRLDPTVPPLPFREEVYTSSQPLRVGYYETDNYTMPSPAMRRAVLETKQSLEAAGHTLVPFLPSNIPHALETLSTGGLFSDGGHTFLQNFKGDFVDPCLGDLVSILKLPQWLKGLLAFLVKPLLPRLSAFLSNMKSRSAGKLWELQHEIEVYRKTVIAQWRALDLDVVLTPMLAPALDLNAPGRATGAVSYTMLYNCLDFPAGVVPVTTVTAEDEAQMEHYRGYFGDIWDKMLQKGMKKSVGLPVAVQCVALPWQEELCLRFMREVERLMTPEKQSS
Type: biochemical
Set-up: expressed in transfected cells
Method: A. Transfection of Cells with Human FAAH
as §1, with “Supercoiled human” for “Supercoiled rat”
as §2, with “at rt” for “at it”, “ethanolamine” for “ethanolamine .”
as §3

Compound | IC50 [nM]
O=C(c1ncco1)C1CCN(Cc2nc3ccccc3cc2Cl)CC1 [Example 80, [1-(3-Chloro-quinolin-2-ylmethyl)-piperidin-4-yl]-oxazol-2-yl-methanone] | 16
O=C(c1ncco1)C1CCN(Cc2ccc3c(c2)OC(F)(F)O3)CC1 [Example 71, [1-(2,2-Difluoro-benzo[1,3]dioxol-5-ylmethyl)-piperidin-4-yl]-oxazol-2-yl-methanone] | 27
O=C(c1ncco1)C1CCN(Cc2cc3ccccc3s2)CC1 [Example 54, (1-Benzo[b]thoiphen-2-ylmethyl-piperidin-4-yl)-oxazol-2-yl-methanone] | 2
O=C(c1ncco1)C1CCN(Cc2ccc3[nH]ccc3c2)CC1 [Example 42] | 519
CC(C)Oc1ccc(CN2CCC(C(=O)c3ncco3)CC2)cc1 [Example 23, [1-(4-Isopropoxy-benzyl)-piperidin-4-yl]-oxazol-2-yl-methanone] | 5000
O=C(c1ncco1)C1CCN(Cc2cc3ccc(Cl)cc3nc2Cl)CC1 [Example 70, [1-(2,7-Dichloro-quinolin-3-ylmethyl)-piperidin-4-yl]-oxazol-2-yl-methanone] | 500
Cc1cccc2cc(CN3CCC(C(=O)c4ncco4)CC3)c(Cl)nc12 [Example 73, [1-(2-Chloro-8-methyl-quinolin-3-ylmethyl)-piperidin-4-yl]-oxazol-2-yl-methanone] | 2
COc1ccc(CN2CCC(C(=O)c3ncco3)CC2)cc1OC [Example 43, [1-(3,4-Dimethoxy-benzyl)-piperidin-4-yl]-oxazol-2-yl-methanone] | 3000
O=C(c1ncco1)C1CCN(Cc2ccc(OC3CCCCC3)cc2)CC1 [Example 21, [1-(4-Cyclohexyloxy-benzyl)-piperidin-4-yl]-oxazol-2-yl-methanone] | 750
CN(C)c1ccc(CN2CCC(C(=O)c3ncco3)CC2)cc1 [Example 20, [1-(4-Dimethylamino-benzyl)-piperidin-4-yl]-oxazol-2-yl-methanone] | 200
CC(C)Oc1cccc(CN2CCC(C(=O)c3ncco3)CC2)c1 [Example 24, [1-(3-Isopropoxy-benzyl)-piperidin-4-yl]-oxazol-2-yl-methanone] | 118
COc1cccc(S(=O)(=O)N2CCC(C(=O)c3ncco3)CC2)c1 [Example 3, [1-(3-Methoxy-benzenesulfonyl)-piperidin-4-yl]-oxazol-2-yl-methanone] | 8000
CCOc1ccc(CN2CCC(C(=O)c3ncco3)CC2)cc1 [Example 28, [1-(4-Ethoxy-benzyl)-piperidin-4-yl]-oxazol-2-yl-methanone] | 772
O=C(c1ncco1)C1CCN(C(=O)c2cccc(Cl)c2)CC1 [Example 12, [1-(3-Chloro-benzoyl)-piperidin-4-yl]-oxazol-2-yl-methanone] | 9000
O=C(c1ncco1)C1CCN(S(=O)(=O)c2ccccc2Cl)CC1 [Example 6, [1-(2-Chloro-benzenesulfonyl)-piperidin-4-yl]-oxazol-2-yl-methanone] | 5000
CC(C)COc1ccc(CN2CCC(C(=O)c3ncco3)CC2)cc1 [Example 17, [1-(4-Isobutoxy-benzyl)-piperidin-4-yl]-oxazol-2-yl-methanone] | 180

Source: patent US20100292266A1, “Oxazolyl Piperidine Modulators of Fatty Acid Amide Hydrolase” (priority 2006, published 2010)
